Data reported in patent US20240122180A1, “FUNGICIDAL HALOMETHYL KETONES AND HYDRATES AND THEIR MIXTURES” (FMC Corporation, priority 2020, published 2024).

Experiments:
[1] = test system: Phakopsora pachyrhizi (the causal agent of Asian soybean rust); assay: Test A: preventive spray on soybean seedlings, visual disease rating (100 = 100% control; * 50 ppm, ** 10 ppm, *** 250 ppm); format: in vivo; settings: 100 = 100% disease control, 0 = no control; for pest or weed control at 10 ppm / pest or weed control at 50 ppm: Phakopsora pachyrhizi
Outline: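 Preventive test: one day after spraying compound (acetone/water suspension, 250 ppm PEG400), seedlings received rust spore inoculum, 24 h in saturated air then 8 days in growth chamber, both at 22 °C. Disease control scored visually, 100 = complete, 0 = none, relative to untreated controls.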

[2] = test system: Puccinia recondita f. sp. tritici (the causal agent of wheat leaf rust); assay: Test B: preventive spray on wheat seedlings, disease rating (100 = 100% control; * 50 ppm, ** 10 ppm, *** 250 ppm); format: in vivo; settings: 100 = 100% disease control, 0 = no control; for pest or weed control at 10 ppm / pest or weed control at 50 ppm: Puccinia recondita
Outline: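 Preventive test: Puccinia recondita f. sp. tritici spores were inoculated one day after run-off spraying of wheat seedlings with test suspension (acetone/water 50/50, 250 ppm PEG400). After 24 h in saturated air and 6 days in a growth chamber, both at 20° C, control was scored 0–100 versus untreated plants.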

SMILES	Test A disease control rating ([1]; 10 ppm test suspension) [%]	Test B disease control rating ([2]; 10 ppm test suspension) [%]	other results
CCOC(=COc1ccc(CN2CCC(C#N)CC2)cc1)C(F)(F)F [compound 311]	0	0	–
CCOC(=COc1ccc(CN2CCC(OC)CC2)cc1)C(F)(F)F [compound 312]	0	0	–
CCOC(=COc1ccc(Cc2ccnc(OCC[Si](C)(C)C)n2)cc1)C(F)(F)F [compound 313]	–	–	Test A disease control rating ([1]; 50 ppm test suspension): 0%; Test B disease control rating ([2]; 50 ppm test suspension): 0%
C[Si](C)(C)CCOc1nccc(Cc2ccc(OCC3(C(F)(F)F)OCCO3)cc2)n1 [compound 314]	–	–	Test A disease control rating ([1]; 50 ppm test suspension): 0%; Test B disease control rating ([2]; 50 ppm test suspension): 0%
CCOC(=O)c1cnn(-c2cccc(O/C=C(\OCC)C(F)(F)F)c2)c1 [compound 317]	–	–	Test A disease control rating ([1]; 50 ppm test suspension): 0%; Test B disease control rating ([2]; 50 ppm test suspension): 0%
O=C(OC1CCC1)c1cnn(Cc2ccc(OCC3(C(F)(F)F)OCCO3)cc2)c1 [compound 318]	100	0	–
CCOC(=O)c1cnn(Cc2ccc(OC(F)(F)C3(C(F)(F)F)OCCO3)cc2)c1 [compound 319]	–	–	Test A disease control rating ([1]; 50 ppm test suspension): 100%; Test B disease control rating ([2]; 50 ppm test suspension): 41%
CCOC(=O)c1cnn(COc2cccc(O/C=C(\OCC)C(F)(F)F)c2)c1 [compound 321]	–	–	pest or weed control at 10 ppm ([1]; 10 ppm test suspension): 100%; pest or weed control at 10 ppm ([2]; 10 ppm test suspension): 0%
CCO/C(=C\Oc1cccc(Cn2cc(C(=O)O)cn2)c1)C(F)(F)F [compound 323]	–	–	Test A disease control rating ([1]; 50 ppm test suspension): 100%; Test B disease control rating ([2]; 50 ppm test suspension): 0%
CCCO/C(=C\Oc1cccc(Cn2cc(C(=O)OCC)cn2)c1)C(F)(F)F [compound 324]	0	0	–
C#CCOC(=O)c1ccn(Cc2ccc(O/C=C(\OCC)C(F)(F)F)cc2)n1 [compound 325]	100	0	–
CCC#CCOC(=O)c1ccn(Cc2ccc(O/C=C(\OCC)C(F)(F)F)cc2)n1 [compound 326]	100	0	–
CCO/C(=C\Oc1ccc(Cn2ccc(C(=O)OC(C)C)n2)cc1)C(F)(F)F [compound 327]	100	0	–
CCO/C(=C\Oc1ccc(CCn2cc(C(=O)O)cn2)cc1)C(F)(F)F [compound 328]	100	0	–
CCO/C(=C\Oc1cccc(Cn2cc(C(=O)OC(C)C)cn2)c1)C(F)(F)F [compound 332]	100	0	–
C=CCOC(=O)c1cnn(Cc2cccc(O/C=C(\OCC)C(F)(F)F)c2)c1 [compound 333]	100	0	–
CCO/C(=C\Oc1cccc(Cn2cc(C(=O)OCC(C)C)cn2)c1)C(F)(F)F [compound 334]	100	0	–
C=C(C)COC(=O)c1cnn(Cc2cccc(O/C=C(\OCC)C(F)(F)F)c2)c1 [compound 335]	100	0	–
C#CCOC(=O)c1cnn(Cc2cccc(O/C=C(\OCC)C(F)(F)F)c2)c1 [compound 336]	100	0	–
CCO/C(=C\Oc1cccc(Cn2cc(C(=O)OCC(C)=O)cn2)c1)C(F)(F)F [compound 337]	100	0	–
CCO/C(=C\Oc1cccc(Cn2cc(C(=O)OCCCCl)cn2)c1)C(F)(F)F [compound 338]	100	0	–
CCCCOC(=O)c1cnn(Cc2cccc(O/C=C(\OCC)C(F)(F)F)c2)c1 [compound 339]	100	0	–
CCO/C(=C\Oc1cccc(Cn2cc(C(=O)OCCOC)cn2)c1)C(F)(F)F [compound 340]	100	0	–
CCO/C(=C\Oc1cccc(Cn2cc(C(=O)OCC3CC3)cn2)c1)C(F)(F)F [compound 341]	100	0	–
CCO/C(=C\Oc1cccc(Cn2cc(C(=O)OCC3CCC3)cn2)c1)C(F)(F)F [compound 342]	100	0	–
CCNC(=O)c1cnn(Cc2cccc(O/C=C(\OCC)C(F)(F)F)c2)c1 [compound 343]	0	0	–
CCOC(=O)c1cnn(Cc2ccc(O/C=C(\OCC)C(F)(F)F)c(Br)c2)c1 [compound 344]	–	–	Test A disease control rating ([1]; 50 ppm test suspension): 100%; Test B disease control rating ([2]; 50 ppm test suspension): 0%
CCOC(=O)c1cnn(CCc2cccc(O/C=C(\OCC)C(F)(F)F)c2)c1 [compound 345]	0	0	–

SMILES	Test A disease control rating ([1]; 10 ppm test suspension) [%]	Test B disease control rating ([2]; 10 ppm test suspension) [%]	other results
CCOC(=O)c1cnn(CCc2cccc(OCC(O)(O)C(F)(F)F)c2)c1 [compound 346]	–	–	pest or weed control at 10 ppm ([1]; 10 ppm test suspension): 0%; pest or weed control at 10 ppm ([2]; 10 ppm test suspension): 0%
CCO/C(=C\Oc1cccc(Cn2cc(C(=O)OCC(F)F)cn2)c1)C(F)(F)F [compound 347]	–	–	Test A disease control rating ([1]; 50 ppm test suspension): 100%; Test B disease control rating ([2]; 50 ppm test suspension): 0%
CCO/C(=C\Oc1cccc(Cn2cc(C(=O)OCCC(F)(F)F)cn2)c1)C(F)(F)F [compound 348]	100	0	–
CCO/C(=C\Oc1cccc(Cn2cc(C(=O)OCCC(F)=C(F)F)cn2)c1)C(F)(F)F [compound 349]	100	0	–
CCO/C(=C\Oc1cccc(Cn2cc(C(=O)OCCC(C)C)cn2)c1)C(F)(F)F [compound 350]	100	0	–
CCO/C(=C\Oc1cccc(Cn2cc(C(=O)OCCCOC)cn2)c1)C(F)(F)F [compound 351]	100	0	–
CCO/C(=C\Oc1cccc(Cn2cc(C(=O)OCCOC(F)(F)F)cn2)c1)C(F)(F)F [compound 352]	100	0	–
CCOC(=O)c1cnn(COc2cccc(OCC3(C(F)(F)F)OCCO3)c2)c1 [compound 353]	–	–	pest or weed control at 50 ppm ([1]; 50 ppm test suspension): 0%; pest or weed control at 50 ppm ([2]; 50 ppm test suspension): 0%
CCO/C(=C\Oc1ccc(CCn2cc(C(=O)OC)cn2)cc1)C(F)(F)F [compound 354]	100	0	–
CCO/C(=C\Oc1cccc(Cn2cc(C(=O)OCCCC(F)(F)F)cn2)c1)C(F)(F)F [compound 355]	100	0	–
CCCCOC(=O)c1ccn(Cc2ccc(O/C=C(\OCC)C(F)(F)F)cc2)n1 [compound 356]	100	0	–
CCO/C(=C\Oc1ccc(Cn2ccc(C(=O)OCC(C)C)n2)cc1)C(F)(F)F [compound 357]	100	9	–
C=C(C)COC(=O)c1ccn(Cc2ccc(O/C=C(\OCC)C(F)(F)F)cc2)n1 [compound 358]	100	0	–
CCO/C(=C\Oc1ccc(Cn2ccc(C(=O)OCC(C)=O)n2)cc1)C(F)(F)F [compound 359]	100	0	–
CCO/C(=C\Oc1ccc(Cn2ccc(C(=O)OCCOC)n2)cc1)C(F)(F)F [compound 360]	100	0	–
CCO/C(=C\Oc1ccc(Cn2ccc(C(=O)OCC3CCC3)n2)cc1)C(F)(F)F [compound 361]	100	0	–
CCO/C(=C\Oc1ccc(Cn2ccc(C(=O)OCCCCl)n2)cc1)C(F)(F)F [compound 362]	100	0	–
CCOC(=O)c1cnn(Cc2cccc(O/C=C(\OC)C(F)(F)F)c2)c1 [compound 365]	100	0	–
CCOC(=O)c1nccn1Cc1cccc(O/C=C(\OCC)C(F)(F)F)c1 [compound 367]	–	–	pest or weed control at 10 ppm ([1]; 10 ppm test suspension): 0%; pest or weed control at 10 ppm ([2]; 10 ppm test suspension): 0%
CCOC(=O)c1csc(Cc2cccc(O/C=C(\OCC)C(F)(F)F)c2)n1 [compound 370]	0	0	–
CCOC(=COc1ccc(NC(=O)C2CC2)cc1)C(F)(F)F [compound 371]	–	–	Test A disease control rating ([1]; 50 ppm test suspension): 0%; Test B disease control rating ([2]; 50 ppm test suspension): 77%
CCO/C(=C\Oc1cccc(Cc2nc(C(=O)NCC(F)(F)F)cs2)c1)C(F)(F)F [compound 377]	–	–	pest or weed control at 10 ppm ([1]; 10 ppm test suspension): 44%; pest or weed control at 10 ppm ([2]; 10 ppm test suspension): 0%
CCOC(=O)c1ccn(Cc2cc(OC)cc(O/C=C(\OCC)C(F)(F)F)c2)n1 [compound 378]	0	0	–
COC(COc1cccc(Cn2cc(Br)cn2)c1)(O[Si](C)(C)C)C(F)(F)F (centres unmarked) [compound 385]	–	–	pest or weed control at 50 ppm ([1]; 50 ppm test suspension): 100%; pest or weed control at 50 ppm ([2]; 50 ppm test suspension): 68%
Cc1ccc(OCC(O)(O)C(F)(F)F)cc1 [compound 396]	–	–	Test A disease control rating ([1]; 50 ppm test suspension): 31%; Test B disease control rating ([2]; 50 ppm test suspension): 19%
CCO/C(=C\Oc1cccc(Cc2nc(C(=O)NCC(F)F)cs2)c1)C(F)(F)F [compound 398]	–	–	pest or weed control at 10 ppm ([1]; 10 ppm test suspension): 0%; pest or weed control at 10 ppm ([2]; 10 ppm test suspension): 0%
CCOC(=O)c1cnn(Cc2ccc(O/C=C(/OCC)C(F)(F)F)cc2)c1 [compound 399]	–	–	pest or weed control at 50 ppm ([1]; 50 ppm test suspension): 97%; pest or weed control at 50 ppm ([2]; 50 ppm test suspension): 0%
